The source of these data is patent US6602906B1 (priority 2002, dated 2003).

Where two headings read alike, the source gives them in different places.

In series [1] the test system is inflamed skin. Conditions: inflamed skin treated with acetone; cited from earlier work.
The conditions of series [2]: cited from earlier work.
Series [3] concerns mouse skin. Conditions: topical application, (hairless) mice; cited from earlier work.
Series [4] is described as follows: Storage stability of the 5.0 wt % topical solution. The format is physicochemical. How it is done:
For topical use, a homogeneous solution in accordance with the present invention containing 5.0 wt % 5,6-O-isopropylidene L-ascorbic acid was prepared by mixing the ingredients shown in TABLE 1. The ingredients were added in the order given and in the given amounts. The solution was prepared in a glass container with continuous stirring. After the addition of the zinc sulfate, and again after the addition of the glycerin, the solution was heated to approximately 60° C. The heating increased the solubility of the 2-phenoxyethanol and of the 5,6-O-isopropylidene L-ascorbic acid. The solution was then filtered through a fine plastic mesh, yielding a clear, colorless to very pale yellow liquid. The 5,6-O-isopropylidene L-ascorbic acid in this solution will retain its potency for approximately six months if the solution is stored at room temperature in a bottle that is impervious to ultraviolet light. In darkness at 10° C., 5,6-O-isopropylidene L-ascorbic acid in solution will remain stable and potent for approximately 18 months.

The conditions of series [5]: in the human; cited from earlier work.
Series [6] has as its system skin of humans. Conditions: topical application; cited from earlier work.
Series [7] deals with pig skin. Conditions: applied topically prior to UVB; cited from earlier work.
For series [8], the system named is human skin. Conditions: applied topically prior to UVB; cited from earlier work.
For series [9] the following is noted: neutral pH; cited from earlier work.
The conditions of series [10]: 20 wt %, pH 2.0; cited from earlier work.
Series [11] relates to mice. Conditions: topical; cited from earlier work.
Series [12] is described as follows: pKa of the molecule.

Take `CC(C)=O` [acetone]: in series [1], the erythema and edema result is given as “diminished”; the “presence of mononuclear cells (indicator of inflammation)” value was “significant decrease”.

Regarding `CCCCCCCCCCCCCCCC(=O)OC[C@H](O)[C@H]1OC(=O)C(O)=C1O` [ascorbyl-6-palmitate, Ascorbyl-6-palmitate], the “skin levels of ascorbic acid” value in [2] (topical serum containing 10 wt %) is “no significant increase”. Also, the “photoaging changes / protection against photoaging in mouse skin” value in [3] is reported as “failed to demonstrate protection against photoaging”.

In the case of `CC1(C)OC[C@@H]([C@H]2OC(=O)C(O)=C2O)O1` [5,6-O-isopropylidene L-ascorbic acid], the “time the compound in solution retains its potency” value in series [4] (5.0 wt % solution of TABLE 1, room temperature, bottle impervious to ultraviolet light) is recorded as “approximately six”. The “time the compound in solution remains stable and potent” value in series [4] (solution, in darkness at 10° C.) is recorded as “approximately 18 months”.

For the compound `O=C1O[C@H]([C@@H](O)CO)C([O-])=C1OP(=O)([O-])[O-].O=C1O[C@H]([C@@H](O)CO)C([O-])=C1OP(=O)([O-])[O-].[Mg+2].[Mg+2].[Mg+2]` [magnesium ascorbyl 2-phosphate], the “skin levels of ascorbic acid” value in series [2] (topical serum containing 13 wt %) is on record as “failed to increase skin levels of ascorbic acid”.

`O=C1O[C@H]([C@@H](O)CO)C(O)=C1O` [ascorbic acid]: the half-life entry in [5] is given as “about 20 days”. For the same compound, the “photoaging changes / protection against photoaging in mouse skin” value in series [3] was “decreased”. Also, the “photoaging changes in the skin” value in series [6] is on record as “decreased”. The “erythema and sunburn after UVB irradiation” value is “erythema and sunburn were prevented” in series [7]; “erythema and sunburn were prevented” in [8]. Besides, the “stability in aqueous solutions” value in series [9] is given as “very unstable”. For the same compound, in [10], the skin irritation result was “highly irritating to the skin”. For the same compound, the “protection against UV-induced immunosuppression and tolerance to contact antigen” value in series [11] is “protect against UV-induced immunosuppression”. Moreover, the pKa – broadly, the negative logarithm of the acid dissociation constant – in series [12] came out at […].
